Source: patent publication US20100035926A1, “PYRAZOLE DERIVATIVES AS NON-STEROIDAL GLUCOCORTICOID RECEPTOR LIGANDS” (priority 2006, published 2010)
Where two headings read alike, the source gives them in different places.

Key:
glucocorticoid receptor = target: T1, glucocorticoid receptor (Homo sapiens, UniProt P04150); assay: Glucocorticoid Receptor Binding Assay (fluorescence polarisation, displacement of Alexa 555 labelled dexamethasone derivative); conditions: at least once in this assay; read-out: glucocorticoid binding pIC50 (converted)
T1 construct: a partially purified full length glucocorticoid receptor
T1 sequence (P04150 1-777): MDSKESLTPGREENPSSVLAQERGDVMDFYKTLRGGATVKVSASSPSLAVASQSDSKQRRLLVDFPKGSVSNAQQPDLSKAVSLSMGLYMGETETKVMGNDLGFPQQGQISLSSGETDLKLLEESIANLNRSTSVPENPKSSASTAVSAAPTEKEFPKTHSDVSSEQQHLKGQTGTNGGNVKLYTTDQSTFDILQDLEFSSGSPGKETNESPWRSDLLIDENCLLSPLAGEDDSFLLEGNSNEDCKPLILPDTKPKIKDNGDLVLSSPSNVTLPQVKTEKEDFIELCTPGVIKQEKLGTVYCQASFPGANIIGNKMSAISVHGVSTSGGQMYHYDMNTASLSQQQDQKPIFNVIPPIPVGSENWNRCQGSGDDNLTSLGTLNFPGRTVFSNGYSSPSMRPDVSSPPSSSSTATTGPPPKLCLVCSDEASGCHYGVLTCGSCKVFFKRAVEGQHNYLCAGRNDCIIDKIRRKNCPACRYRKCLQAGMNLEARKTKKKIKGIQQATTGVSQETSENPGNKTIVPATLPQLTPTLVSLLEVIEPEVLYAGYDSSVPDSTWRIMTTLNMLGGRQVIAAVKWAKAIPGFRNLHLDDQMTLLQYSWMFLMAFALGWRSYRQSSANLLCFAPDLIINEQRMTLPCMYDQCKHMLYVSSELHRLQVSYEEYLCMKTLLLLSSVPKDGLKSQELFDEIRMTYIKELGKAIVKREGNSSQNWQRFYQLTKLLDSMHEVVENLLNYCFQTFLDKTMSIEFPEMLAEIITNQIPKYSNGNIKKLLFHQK
In short: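 Partially purified full-length GR incubated with test compound and fluorescent dexamethasone plus GR-stabilising buffer components, 2 hr at room temperature in the dark. Binding scored as displacement of tracer, read as decrease in fluorescence polarisation.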

GR [1] = target: T2, GR (Homo sapiens, UniProt P04150); assay: GR Functional Assay - NFκB Assay (A549 SPAP cells, TNFα stimulated); type: cell-based; conditions: for Emax: agonists, read-out: average maximum asymptote in the NFkB assay
T2 construct: endogenous in cells; host or cells: A549 (human lung carcinoma, ECACC No. 86012804), stably transfected with reporter plasmids only
T2 sequence (P04150 1-777): T1 sequence (P04150 1-777)
In short: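 Stably transfected A549 SPAP cells at 0.16×10^6/ml in DMEM with 10% FCS were added to compound and stimulated with TNFα to drive NFκB-dependent SPAP expression. After 1 hr equilibration at room temperature, SPAP was read colorimetrically with pNPP in diethanolamine buffer, pH 9.8.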

GR [2] = target: T2, GR; assay: GR Agonist Assay - MMTV Assay (A549 MMTV cells, renilla luciferase reporter); type: cell-based; conditions: 6 h, agonists, read-out: average maximum asymptote in the MMTV agonist assay
In short: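 Stably transfected A549 MMTV cells carry a GR-driven luciferase reporter. Cells at 0.1×10^6/ml in DMEM with 10% FCS and 25 mM HEPES were added to wells containing compound. After detection reagent, plates were held about 15 mins at room temperature and luminescence was read.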

Progesterone Receptor = target: T3, Progesterone Receptor (Homo sapiens, UniProt P06401); assay: Assay for Progesterone Receptor Agonist Activity (CV-1 cells, PRb-BacMam, MMTV-BacMam); type: cell-based; conditions: at least once in this assay, read-out: progesterone receptor agonist pEC50 (converted)
T3 construct: expressed in transfected cells; host or cells: CV-1 cells transduced with PRb-BacMam and MMTV-BacMam
T3 sequence (P06401 1-933): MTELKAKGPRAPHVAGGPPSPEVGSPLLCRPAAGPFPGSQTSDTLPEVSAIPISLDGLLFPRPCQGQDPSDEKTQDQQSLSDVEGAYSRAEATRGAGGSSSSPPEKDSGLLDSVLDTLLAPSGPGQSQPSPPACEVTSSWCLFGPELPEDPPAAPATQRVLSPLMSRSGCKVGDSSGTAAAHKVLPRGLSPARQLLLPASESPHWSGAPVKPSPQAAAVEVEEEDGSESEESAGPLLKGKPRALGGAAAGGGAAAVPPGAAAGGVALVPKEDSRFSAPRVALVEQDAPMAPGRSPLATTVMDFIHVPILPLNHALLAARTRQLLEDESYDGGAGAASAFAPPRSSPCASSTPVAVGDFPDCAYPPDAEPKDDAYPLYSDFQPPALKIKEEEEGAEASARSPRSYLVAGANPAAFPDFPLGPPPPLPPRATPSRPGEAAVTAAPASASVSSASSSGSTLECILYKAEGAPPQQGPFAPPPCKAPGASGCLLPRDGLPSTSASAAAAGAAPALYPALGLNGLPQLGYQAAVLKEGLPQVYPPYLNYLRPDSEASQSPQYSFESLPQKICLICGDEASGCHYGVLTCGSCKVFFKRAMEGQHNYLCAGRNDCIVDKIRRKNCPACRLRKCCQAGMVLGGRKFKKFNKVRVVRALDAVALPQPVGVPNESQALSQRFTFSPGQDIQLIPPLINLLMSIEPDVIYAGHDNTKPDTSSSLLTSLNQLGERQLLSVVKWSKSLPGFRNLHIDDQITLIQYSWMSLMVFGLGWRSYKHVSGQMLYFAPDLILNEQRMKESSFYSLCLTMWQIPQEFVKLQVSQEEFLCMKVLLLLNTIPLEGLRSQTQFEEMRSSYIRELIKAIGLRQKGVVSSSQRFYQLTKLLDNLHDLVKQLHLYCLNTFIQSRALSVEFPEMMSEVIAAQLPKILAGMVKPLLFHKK
Experimental: A T225 flask of CV-1 cells at a density of 80% confluency was washed with PBS, detached from the flask using 0.25% trypsin and counted using a Sysmex KX-21N. Cells were diluted in DMEM containing 10% Hyclone, 2 mM […] and 1% Pen/Strep at 140 cells/μl and transduced with 10% PRb-BacMam and 10% MMTV-BacMam. […] of suspension cells were dispensed to each well of white Nunc 384-well plates, containing compounds at the required concentration. After 24 hr 10 μl of Steadylite were added to each well of the plates. Plates were incubated in the dark for 10 min before reading them on a Viewlux reader. Dose response curves were constructed from which pEC50 values were estimated.

[3] = at least once in the NFkB assay, A549 SPAP cells, read-out: pIC50 in the NFkB assay (converted)
[4] = at least once, examples listed as agonists in NFkB and MMTV assays, read-out: potency pIC50 in the NFKB assay (converted)

| Compound | IC50 (glucocorticoid receptor) | Emax (GR [1]; A549 SPAP cells) | IC50 (GR [1]; [3]) | IC50 (GR [1]; [4]) | Emax (GR [2]) | EC50 (Progesterone Receptor) |
| --- | --- | --- | --- | --- | --- | --- |
| Nc1c(C(=O)NCC(O)(CN(CCF)C(=O)c2ccccc2F)C(F)(F)F)cnn1-c1ccc(F)cc1 (single isomer, unassigned) [Example 2 Enantiomer 1, 5-Amino-1-(4-fluorophenyl)-N-[3,3,3-trifluoro-2-([(2-fluoroethyl)[(2-fluorophenyl)carbonyl]amino]methyl)-2-hydroxypropyl]-1H-pyrazole-4-carboxamide] | < 1000 nM | ≥ 40% | < 1000 nM | < 316 nM | ≥ 40% | > 1000 nM |
| CCN(CC(O)(CNC(=O)c1cnn(-c2ccc(F)cc2)c1N)C(F)(F)F)C(=O)c1ccccc1F (racemic) [Example 4 (racemic), 5-Amino-N-[2-({ethyl[(2-fluorophenyl)carbonyl]amino}methyl)-3,3,3-trifluoro-2-hydroxypropyl]-1-(4-fluorophenyl)-1H-pyrazole-4-carboxamide] | < 1000 nM | ≥ 40% | < 1000 nM | < 316 nM | ≥ 40% | > 1000 nM |
| CCN(CC(O)(CNC(=O)c1cnn(-c2ccc(F)cc2)c1N)C(F)(F)F)C(=O)c1cccc2cccnc12 (single isomer, unassigned) [Example 8 Enantiomer 1, N-{2-[({[5-amino-1-(4-fluorophenyl)-1H-pyrazol-4-yl]carbonyl}amino)methyl]-3,3,3-trifluoro-2-hydroxypropyl}-N-ethyl-8-quinolinecarboxamide] | < 1000 nM | ≥ 40% | < 1000 nM | < 316 nM | ≥ 40% | > 1000 nM |
| CN(CC(O)(CNC(=O)c1cnn(-c2ccc(F)cc2)c1N)C(F)(F)F)C(=O)c1ccccc1F (racemic) [Example 6 (racemic), 5-amino-1-(4-fluorophenyl)-N-(3,3,3-trifluoro-2-{[[(2-fluorophenyl)car-bonyl](methyl)amino]methyl}-2-hydroxypropyl)-1H-pyrazole-4-carboxamide] | < 1000 nM | ≥ 40% | < 1000 nM | < 316 nM | ≥ 40% | > 1000 nM |
| CCN(CC(O)(CNC(=O)c1cnn(-c2ccc(F)cc2)c1N)C(F)(F)F)C(=O)c1cccc(F)c1F (single isomer, unassigned) [Example 5 Enantiomer 1, 5-Amino-N-(2-{[[(2,3-difluorophenyl)carbonyl](ethyl)amino]methyl}-3,3,3-trifluoro-2-hydroxypropyl)-1-(4-fluorophenyl)-1H-pyrazole-4-carboxamide] | < 1000 nM | ≥ 40% | < 1000 nM | < 316 nM | ≥ 40% | > 1000 nM |
| CCN(CC(O)(CNC(=O)c1cnn(-c2ccccc2)c1N)C(F)(F)F)C(=O)c1ccccc1F (single isomer, unassigned) [Example 45 Enantiomer 1, 5-amino-N-[2-({ethyl[(2-fluorophenyl)car-bonyl]amino}methyl)-3,3,3-trifluoro-2-hydroxypropyl]-1-phenyl-1H-pyrazole-4-carboxamide] | < 1000 nM | ≥ 40% | < 1000 nM | < 316 nM | ≥ 40% | > 1000 nM |
| CN(CC(O)(CNC(=O)c1cnn(-c2ccc(F)cc2)c1N)C(F)(F)F)C(=O)c1ccccc1Cl (racemic) [Example 7 (racemic), 5-amino-N-(2-{[[(2-chlorophenyl)car-bonyl](methyl)amino]methyl}-3,3,3-trifluoro-2-hydroxypropyl)-1-(4-fluorophenyl)-1H-pyrazole-4-carboxamide] | < 1000 nM | ≥ 40% | < 1000 nM | < 316 nM | ≥ 40% | > 1000 nM |
| CCN(CC(O)(CNC(=O)c1cnn(-c2ccc(F)cc2)c1N)C(F)(F)F)C(=O)c1ccccc1C(F)(F)F (racemic) [Example 9 (racemic), 5-amino-N-{2-[(ethyl{[2-(trifluoromethyl)phenyl]carbonyl}amino)methyl]-3,3,3-trifluoro-2-hydroxypropyl}-1-(4-fluorophenyl)-1H-pyrazole-4-carboxamide] | < 1000 nM | ≥ 40% | < 1000 nM | < 316 nM | ≥ 40% | > 1000 nM |
| CCN(CC(O)(CNC(=O)c1cnn(-c2ccccc2)c1N)C(F)(F)F)C(=O)c1ccccc1Cl (racemic) [Example 46 (racemic), 5-amino-N-(2-{[[(2-chlorophenyl)car-bonyl](ethyl)amino]methyl}-3,3,3-trifluoro-2-hydroxypropyl)-1-phenyl-1H-pyrazole-4-carboxamide] | < 1000 nM | ≥ 40% | < 1000 nM | < 316 nM | ≥ 40% | > 1000 nM |
| CCN(CC(O)(CNC(=O)c1cnn(-c2ccccc2)c1N)C(F)(F)F)C(=O)c1ccccc1F (racemic) [Example 45 (racemic), 5-amino-N-[2-({ethyl[(2-fluorophenyl)car-bonyl]amino}methyl)-3,3,3-trifluoro-2-hydroxypropyl]-1-phenyl-1H-pyrazole-4-carboxamide] | < 1000 nM | ≥ 40% | < 1000 nM | < 316 nM | ≥ 40% | > 1000 nM |
| CCN(CC(O)(CNC(=O)c1cnn(-c2ccc(F)cc2)c1N)C(F)(F)F)C(=O)c1ccccc1C(F)(F)F (single isomer, unassigned) [Example 9 Enantiomer 1, 5-amino-N-{2-[(ethyl{[2-(trifluoromethyl)phenyl]carbonyl}amino)methyl]-3,3,3-trifluoro-2-hydroxypropyl}-1-(4-fluorophenyl)-1H-pyrazole-4-carboxamide] | < 1000 nM | ≥ 40% | < 1000 nM | < 316 nM | ≥ 40% | > 1000 nM |
